Measured values: patent publication US6518458B1, “(Aminoiminomethyl) amino) alkane-carboxamides and their applications in therapy” (Merck Patent GmbH, priority 1999, dated 2003)
Counter-ions that a name gives are not always drawn. Like-named read-outs stand apart in the source and are kept apart here.

Experiments:
Nostz rat = test: Antidiabetic activity in the Nostz rat (non-insulin-dependent diabetes induced using streptozotocin); assay type: in vivo; settings: po, 2 h, blood 2 h after final administration, diabetic rats, read-out: percentage change in glycaemia relative to d0 (before treatment); for change in vivo at 20 mg/kg: 20 mg/kg/d oral; for change in vivo at 200 mg/kg: 200 mg/kg/d oral
Protocol: The antidiabetic activity of the compounds of formula (I) was determined orally on an experimental model of non-insulin-dependent diabetes induced in the rat using streptozotocin.
The model of non-insulin-dependent diabetes is obtained in rats by neonatal injection (on the day of birth) of streptozotocin.
The diabetic rats used are 8 weeks old. The animals are kept from the day of their birth to the day of the experiment in an animal house at a regulated temperature of from 21 to 22° C. and are subjected to a fixed cycle of light (from 7.00 am to 7.00 pm) and darkness (from 7.00 pm to 7.00 am). Their diet consisted of a maintenance diet; water and food were provided ad libitum, except for the 2 hours fasting prior to the tests in which food is withdrawn (post-absorptive state).
The rats are treated orally for one (d1) or four (d4) days with the test product. Two hours after the final administration of the product and 30 minutes after anaesthesia of the animals with sodium pentobarbital (Nembutalo®), […] of blood is sampled from the end of the tail.

Row | melting point [°C] | Structure (SMILES) | change in vivo at 20 mg/kg (Nostz rat; d1 (one day of treatment)) [%] | change in vivo at 20 mg/kg (Nostz rat; d4 (four days of treatment)) [%] | change in vivo at 200 mg/kg (Nostz rat; d1 (one day of treatment)) [%] | change in vivo at 200 mg/kg (Nostz rat; d4 (four days of treatment)) [%]
1 | 260 to 262 | CC(C)c1cccc(C(C)C)c1NC(=O)CNC(=N)N (as salt: HCl) [Compound 2] |  |  |  | 
2 | 159 to 161 | Cc1cccc(C)c1NC(=O)[C@H](C)NC(=N)N (as salt: HCl) [Compound 6] |  |  |  | 
3 | > 260 | Cc1cc(C)c(NC(=O)CNC(=N)N)c(C)c1 (as salt: HCl) [Compound 7] |  |  |  | 
4 | 217 to 219 | N=C(N)NCC(=O)N(Cc1ccccc1)Cc1ccccc1 (as salt: HCl) [Compound 11] |  |  |  | 
5 | 181 to 183 | N=C(N)NCC(=O)Nc1c(Cl)cccc1Cl (as salt: HCl) [Compound 12] |  |  |  | 
6 | 144 to 146 | N=C(N)NCC(=O)NCc1ccccc1 (as salt: HCl) [Compound 15] |  |  |  | 
7 | 249 to 251 | CSc1cc(C)nc(SC)c1NC(=O)CNC(=N)N (as salt: HCl) [Example 3] |  |  |  | 
8 | 227 to 229 | Cc1cccc(C)c1NC(=O)CN(C)C(=N)N (as salt: HCl) [Example 5] |  |  |  | 
9 |  | Cc1cccc(C)c1NC(=O)[C@H](C)NC(=N)N [Compound 6] | 8 | -3 | -4 | -18
10 |  | Cc1cc(C)c(NC(=O)CNC(=N)N)c(C)c1 [Compound 7] | -9 | -9 | -3 | -10
11 |  | CCC(C)[C@H](NC(=N)N)C(=O)Nc1c(C)cccc1C (stereo partly drawn) [Compound 8] | -11 | -14 | -8 | -10
12 |  | Cc1cccc(C)c1NC(=O)[C@H](CC(C)C)NC(=N)N [Compound 9] | -4 | -15 | 7 | -4
13 |  | Cc1cccc(C)c1NC(=O)[C@H](C(C)C)N(C)C(=N)N [Compound 10] | -13 | -15 | -3 | -16
14 |  | N=C(N)NCC(=O)N(Cc1ccccc1)Cc1ccccc1 [Compound 11] | -14 | -9 | -3 | -16
15 |  | N=C(N)NCC(=O)Nc1c(Cl)cccc1Cl [Compound 12] | -9 | -13 | -14 | -27
16 | 255 to 257 | Cc1cccc(C)c1NC(=O)CNC(=N)N [Example 1] | -3 | -7 | -20 | -24
17 |  | CSc1cc(C)nc(SC)c1NC(=O)CNC(=N)N [Example 3] | 7 | -7 | -5 | -4
18 | 223 to 225 | Cc1cccc(C)c1NC(=O)CCNC(=N)N [Example 4] | -1 | -11 | -13 | -15
19 |  | Cc1cccc(C)c1NC(=O)CN(C)C(=N)N [Example 5] | -2 | -7 | -16 | -25
